Measurements published in publication PMC4295395, “An open label pilot study to evaluate the efficacy of Spanish black radish on the induction of phase I and phase II enzymes in healthy male subjects” (BMC Complementary and Alternative Medicine, 2014).

Key:
[1] = Plasma acetaminophen and metabolite profile (HPLC) after 1000 mg acetaminophen, at week 0 and after 4 weeks of SBR supplementation; conditions: for Decrease of plasma AUC0-8h from week 0 to week 4: after 4 weeks SBR supplementation; for Decrease of plasma AUC0-8h from week 0 to week 4 / Plasma AUC(0–8 hour) / Plasma Tmax / Plasma Cmax / AUC(0-t) / Cmax / Tmax: 1000 mg acetaminophen; for Plasma Tmax, difference from week 0 to week 4: after 4 weeks SBR vs week 0, mean ± SD; for AUC(0-t) / Cmax / Tmax: male, human, plasma, oral, 1000 mg; for AUC(0-t): Plasma AUC(0–8 hour); for Cmax: Plasma Cmax; for Tmax: Plasma Tmax
Method: (§1) Participants returned to the clinic for their 8-hour in-clinic baseline visit (week 0) at which time their heart rate and blood pressure were measured and BMI calculated. […] Meals were provided after the pre-dose and 4-hour blood collection. After the 8-hour test period, participants received 3-day food records and paper diaries for recording their study product use, changes in concomitant therapies, and any side effects/changes in health conditions.
(§2) Participants returned to the clinic in a fasting state at 28 days post-baseline (week 4) for an 8-hour in-clinic test at which time heart rate and blood pressure were measured and BMI was calculated. […] Meals were provided after the pre-dose and the 4-hour blood collection. Subjects were required to consume the same meal items on each of the 8-hour test days.
The plasma was separated and aliquoted into 1.0 mL volume samples. These samples were stored below -40°C until high-performance […] chromatography (HPLC) analysis was performed. Plasma samples were prepared for HPLC analysis by adding 25 μl of 30% w/v aqueous perchloric acid (311413, Sigma-Aldrich, Toronto, Canada) to 250 μl of plasma in a 1.5 ml Eppendorf tube and then vortexed for 30 seconds and centrifuged at 1800 g for 10 min and 20 μl of clear supernatant was injected into the HPLC system.
Paracetamol (50 μg, A5000, Sigma-Aldrich, Toronto, Canada), paracetamol glucuronide (50 μg, A4438, Sigma-Aldrich, Toronto, Canada), or paracetamol sulfate (50 μg, A161230, Toronto Research Chemical Inc., Toronto, Canada) was added to 1 ml of Milli Q water/methanol mixture (50:50 v/v). NAPQI (50 μg, A170000, Toronto Research Chemical) was added to 1 ml acetonitrile. […] standard solutions were prepared in plasma devoid of paracetamol (blank) at the following concentrations: 25 μg/ml, 12.5 μg/ml, 6.25 μg/ml, 3.125 μg/ml, 1.56 μg/ml, 0.78 μg/ml and 0.39 μg/ml by serial dilution.
(§3) The chromatography system comprised of a Varian Solvent Delivery module 210, injector Varian Auto Sampler model 410, Varian 335 Photo Diode Array Detector for detection and MS workstation software 6.4.1 for data acquisition. Reverse phase isocratic HPLC analysis was performed with a C18 column with particle size 4 μm (4.6x150 mm). The flow rate was 0.65-0.75 ml/minute and the detection was at 240–245 nm. A 0.1 M sodium phosphate buffer containing acetonitrile at a ratio of 10:90 (v/v) was used as the mobile phase for plasma analysis. A 1 M sodium phosphate buffer containing acetonitrile at a ratio of 5:95 (v/v) was used as mobile phase for urine analysis.
(§4) Statistical comparisons of maximum concentrations (Cmax) and area under the concentration time curve (AUC) were performed on log transformed data. A paired t-test was used to compare pre- and post-treatment measurements of safety end points: biometrics, vital signs, hematology and blood clinical chemistry parameters. SAS Version 9.1 was used to perform the statistical analysis, with probability values ≤0.05 considered statistically significant.

[2] = Urine acetaminophen and metabolite profile (HPLC) after 1000 mg acetaminophen, at week 0 and after 4 weeks of SBR supplementation; type: in vivo, human; conditions: for Urine concentration at time points, week 4 vs week 0 (in words): 0, 2, 4, 6, 8 h after 1000 mg acetaminophen, after 4 weeks SBR; for Increase of urine levels (AUC0-8h) from week 0 to week 4: after 4 weeks SBR supplementation, 1000 mg acetaminophen
Method: as §1, §2
At baseline and week 4, urine was collected in separate containers at 2 hour intervals between 0 and 8 hours, aliquoted into 1.0 mL volumes and stored below -40°C until HPLC analysis. Urine samples were prepared for HPLC analysis by adding 750 μl of Milli Q water to 250 μl of urine and vortexed. The preparation was centrifuged at 1800 g for 10 min and 20 μl of the preparation was injected into the HPLC system.
Paracetamol (5000 μg, A5000, Sigma-Aldrich), paracetamol glucuronide (5000 μg, A4438, Sigma-Aldrich), paracetamol sulfate (5000 μg, A161230, Toronto Research Chemical) or paracetamol mercapturate (5000 μg, A172100, Toronto Research Chemical) were added to 1 ml of a Milli Q water/methanol mixture (50:50 v/v). Serial dilutions of each stock solution were prepared in urine devoid of paracetamol (blank) to give the following concentrations: 2500 μg/ml, 1250 μg/ml, 625 μg/ml, 312.5 μg/ml, 156.25 μg/ml, 78.15 μg/ml, 39.0625 μg/ml, 19.531 μg/ml, 9.766 μg/ml and 4.883 μg/ml by serial dilution.
as §3, §4

[3] = week 0 (before SBR), N=19, mean ± SD
[4] = week 0 (before SBR), healthy males N=19, mean ± SD
[5] = week 4 (after 4 weeks SBR), N=19, mean ± SD
[6] = week 4 (after 4 weeks SBR, 6 tablets daily), N=19, mean ± SD
[7] = after 4 weeks SBR vs week 0, mean ± SD

Row | Compound | Decrease of plasma AUC0-8h from week 0 to week 4 [1] | Plasma Tmax, difference from week 0 to week 4 [1] | Plasma AUC(0–8 hour) [1, 3] | Plasma Tmax [1, 3] | Plasma Cmax [1, 4] | Plasma AUC(0–8 hour) [1, 5] | Plasma Tmax [1, 5] | Plasma Cmax [1, 6] | Urine concentration at time points, week 4 vs week 0 (in words) [2] | Increase of urine levels (AUC0-8h) from week 0 to week 4 [2] | Urine AUC(0–8 hour), difference from week 0 to week 4 [2, 7] | Urine Cmax, difference from week 0 to week 4 [2, 7] | Plasma concentration at time points, week 4 vs week 0 (in words) ([1]; 0, 2, 4, 6, 8 h after 1000 mg acetaminophen, after 4 weeks SBR) | AUC(0-t) [1, 3] | AUC(0-t) [1, 5] | Cmax [1, 4] | Cmax [1, 6] | Tmax [1, 3] | Tmax [1, 5] | Urine Tmax, difference from week 0 to week 4 [2, 7]
1 | CC(=O)Nc1ccc(O)c(SC[C@H](NC(=O)CC[C@H](N)C(=O)O)C(=O)NCC(=O)O)c1 [NAPQI-GSH] | 9% | -0.00 ± 0.02 h | 0.72 ± 0.31 µM·h | 2.03 ± 0.01 h | 180 ± 90 nM | 0.66 ± 0.22 µM·h | 2.02 ± 0.01 h | 180 ± 40 nM |  |  |  |  |  |  |  |  |  |  |  | 
2 | CC(=O)Nc1ccc(O)c(SCC(N)C(=O)O)c1 (centres unmarked) [Acetaminophen mercapturate] |  |  |  |  |  |  |  |  | higher at all time points | 37% | 22.68 ± 44.43 mg·h | 4.82 ± 9.72 mg |  |  |  |  |  |  |  | 
3 | CC(=O)Nc1ccc(O[C@@H]2O[C@H](C(=O)O)[C@@H](O)[C@H](O)[C@H]2O)cc1 [Acetaminophen glucuronide] | 9% | 0.42 ± 1.26 h |  |  |  |  |  |  | no significant differences | 1% | -38.69 ± 342.45 mg·h | 19.57 ± 124.28 mg | decreased significantly at 2 h post-acetaminophen dose | 58000 ± 14500 ng·h/mL | 52800 ± 14100 ng·h/mL | 12600 ± 4120 ng/mL | 10800 ± 3090 ng/mL | 2.13 ± 0.46 h | 2.55 ± 1.13 h | 0.32 ± 1.67 h
